Assay results: PubChem BioAssay (NCI)
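96-well plates; 48 h exposure; 5 concentrations. Endpoints by linear interpolation between flanking doses. Not reached: highest tested concentration assigned. GI50: concentration for 50% inhibition of growth. TGI: concentration producing complete growth inhibition.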

Assays:
Test in all cases: NCI tumour cell line growth inhibition, 48 h
SK-MEL-5 melanoma = system: SK-MEL-5 melanoma
MALME-3M melanoma = system: MALME-3M melanoma
RPMI-8226 leukemia = system: RPMI-8226 leukemia
NCI-H23 lung = system: NCI-H23 lung
A498 renal = system: A498 renal
OVCAR-8 ovarian = system: OVCAR-8 ovarian
ACHN renal = system: ACHN renal
SF-539 CNS = system: SF-539 CNS
OVCAR-3 ovarian = system: OVCAR-3 ovarian
EKVX NSCLC = system: EKVX NSCLC
SK-OV-3 ovarian = system: SK-OV-3 ovarian
COLO 205 colon = system: COLO 205 colon
OVCAR-4 ovarian = system: OVCAR-4 ovarian
MDA-MB-231 breast = system: MDA-MB-231 breast
MDA-MB-468 breast = system: MDA-MB-468 breast
CAKI-1 renal = system: CAKI-1 renal
HOP-92 NSCLC = system: HOP-92 NSCLC
HL-60(TB) leukemia = system: HL-60(TB) leukemia
HCT-116 colon = system: HCT-116 colon
T-47D breast = system: T-47D breast
HCT-15 colon = system: HCT-15 colon
NCI-H226 lung = system: NCI-H226 lung
SF-295 CNS = system: SF-295 CNS
U251 CNS = system: U251 CNS
PC-3 prostate = system: PC-3 prostate
UACC-257 melanoma = system: UACC-257 melanoma
HT29 colon = system: HT29 colon
HCC-2998 colon = system: HCC-2998 colon
IGROV1 ovarian = system: IGROV1 ovarian
SW-620 colon = system: SW-620 colon

COP(=O)(CC(F)(F)C(F)(F)F)OC
GI50 (SK-MEL-5 melanoma): 5.98 µM | TGI (SK-MEL-5 melanoma): 19.2 µM | GI50 (MALME-3M melanoma): 2.32 µM | TGI (MALME-3M melanoma): 5.62 µM | GI50 (RPMI-8226 leukemia): 3.07 µM | TGI (RPMI-8226 leukemia): 8.49 µM | GI50 (NCI-H23 lung): 7.36 µM | TGI (NCI-H23 lung): 21.4 µM | GI50 (A498 renal): 22.1 µM | TGI (A498 renal): 41.1 µM | GI50 (OVCAR-8 ovarian): 17.2 µM | TGI (OVCAR-8 ovarian): 84.2 µM | GI50 (ACHN renal): 2.12 µM | TGI (ACHN renal): 4.52 µM | GI50 (SF-539 CNS): 2.55 µM | TGI (SF-539 CNS): 7.21 µM | GI50 (OVCAR-3 ovarian): 3.44 µM | TGI (OVCAR-3 ovarian): 12.1 µM | GI50 (EKVX NSCLC): 2.71 µM | TGI (EKVX NSCLC): 8.33 µM | GI50 (SK-OV-3 ovarian): 30.1 µM | TGI (SK-OV-3 ovarian): 76.1 µM | GI50 (COLO 205 colon): 1.99 µM | TGI (COLO 205 colon): 3.62 µM | GI50 (OVCAR-4 ovarian): 14 µM | TGI (OVCAR-4 ovarian): 30 µM | GI50 (MDA-MB-231 breast): 8.95 µM | TGI (MDA-MB-231 breast): 22.9 µM | GI50 (MDA-MB-468 breast): 1.35 µM | TGI (MDA-MB-468 breast): 3.16 µM | GI50 (CAKI-1 renal): 2.6 µM | TGI (CAKI-1 renal): 6.49 µM | GI50 (HOP-92 NSCLC): 3.89 µM | TGI (HOP-92 NSCLC): 13.1 µM | GI50 (HL-60(TB) leukemia): 2.15 µM | TGI (HL-60(TB) leukemia): 5.33 µM | GI50 (HCT-116 colon): 2.21 µM | TGI (HCT-116 colon): 5.99 µM | GI50 (T-47D breast): 2.36 µM | TGI (T-47D breast): 7.99 µM | GI50 (HCT-15 colon): 1.76 µM | TGI (HCT-15 colon): 4.93 µM | GI50 (NCI-H226 lung): 23.2 µM | TGI (NCI-H226 lung): 73.1 µM | GI50 (SF-295 CNS): 16.5 µM | TGI (SF-295 CNS): 31.8 µM | GI50 (U251 CNS): 17.6 µM | TGI (U251 CNS): 38 µM | GI50 (PC-3 prostate): 7.87 µM | TGI (PC-3 prostate): 25.2 µM | GI50 (UACC-257 melanoma): 1.94 µM | TGI (UACC-257 melanoma): 5.83 µM | GI50 (HT29 colon): 2.46 µM | TGI (HT29 colon): 5.17 µM | GI50 (HCC-2998 colon): 13.6 µM | TGI (HCC-2998 colon): 27 µM | GI50 (IGROV1 ovarian): 19.9 µM | TGI (IGROV1 ovarian): 42.5 µM | GI50 (SW-620 colon): 2.04 µM
